Measured values from PMC9069406 (Acta Pharmaceutica Sinica. B, 2021).

Test system: 4T1 (murine TNBC) cells
Test: TNBC allograft model
Format: in vivo, mice
Settings: 0.5 mg/kg i.p. daily, 18 days

N.N.[Cl][Pt][Cl] [cisplatin]
reduction of average tumor weight at sacrifice: 25.2%
